What was measured:
[1] = test system: Medicago truncatula αDOX (SEQ ID NO: 9), fatty acid alpha-dioxygenase, A4PRI0, N-terminal His-tag variant SEQ ID NO: 265 (comparative); experiment: Alpha-dioxygenase activity assay (oxygen consumption, TON); assay type: biochemical; details: fatty acid 100 µM, enzyme 6 ppm, 50 mM HEPES pH 9.0, 37°C; initial rate of oxygen consumption / enzyme concentration
From the text: (§1) Medicago truncatula αDOX (SEQ ID NO: 9) is a fatty acid alpha-dioxygenase that converts fatty acids into the corresponding 2-hydroperoxy fatty acids and is included as a comparative example of the present invention. A codon optimized gene (SEQ ID NO: 264) encoding for an alpha-dioxygenase variant (SEQ ID NO: 265), including an N-terminal amino acid sequence containing a His-tag was designed and synthesized by Genscript. After gene synthesis, the protein was expressed and purified. In brief, the complete synthetic gene sequence was subcloned into a pET30a vector using the NdeI/HindIII cloning sites. For heterologous expression, Escherichia coli BL21 (DE3) cells were transformed with the recombinant plasmid and a single colony was inoculated into LB medium containing kanamycin (50 mg/L). A pre-starter culture was then inoculated into flasks containing Magic Media (Thermo Fisher, Catalog # K6803) supplemented with kanamycin (50 mg/L) and incubated at 16 °C for 72 h. At an OD600nm = 0.5 - 1.0, 5-aminolevulinic acid (final concentration 0.5 mM) was added. Cells were harvested by centrifugation at 5000 rpm and 4°C and the pellet was lysed using a bacterial cell lysis buffer (B-PER - Themo Fisher, Waltham, MA). After centrifugation, the supernatant was collected, and the protein was purified by one-step purification using HisPur™ Ni-NTA Spin Columns (Thermo Scientific, Catalog # 88226) and standard protocols known in the art. The protein was concentrated using a 10 kDa MW cutoff Amicon Ultra centrifugal filter unit (Millipore Sigma, Catalog# UFC901024), followed by desalting using a disposable PD-10 desalting column (GE Healthcare Life Sciences, Catalog# 17085101) and a buffer containing 50 mM Tris-HCl, 500 mM NaCl, and 10% Glycerol at pH 8.0. […]
(§2) Reactions with alpha-dioxygenases were performed as follows. […] The reaction was incubated for up to 10 minutes at 37°C with 200 rpm agitation and the conversion was monitored using an oxygen sensor. The TON (in s-1) were calculated as the ratio between the initial rate of oxygen consumption (in µM/s) and the concentration of enzyme (in µM). […]

[2] = test system: Streptomyces avermitilis αDOX (SEQ ID NO: 13), fatty acid alpha-dioxygenase, Q82M86, N-terminal His-tag variant SEQ ID NO: 273 (comparative); experiment: as above; assay type: biochemical; details: fatty acid 100 µM, enzyme 6 ppm, 50 mM HEPES pH 9.0, 37°C; initial rate of oxygen consumption / enzyme concentration
From the text: as §1, with “Streptomyces avermitilis” for “Medicago truncatula”, “13)” for “9)”, “272)” for “264)”, “273),” for “265),”, “art.” for “art. The protein was concentrated using a 10 kDa MW cutoff Amicon Ultra centrifugal filter unit (Millipore Sigma, Catalog# UFC901024), followed by desalting using a disposable PD-10 desalting column (GE Healthcare Life Sciences, Catalog# 17085101) and a buffer containing 50 mM Tris-HCl, 500 mM NaCl, and 10% Glycerol at pH 8.0.”
as §2

CCCCCCCC/C=C\CCCCCCCC(=O)O [Oleic Acid]
Oleic Acid, TON [1]: 0.06 s⁻¹
Oleic Acid, TON [2]: 0.00 s⁻¹

CCCCCCCCCCCCCCCC(=O)O [Palmitic Acid]
Palmitic Acid, TON [1]: 0.57 s⁻¹
Palmitic Acid, TON [2]: 0.00 s⁻¹

CCCCCCCCCCCCCCCCCC(=O)O [Stearic Acid]
Stearic Acid, TON [1]: 0.02 s⁻¹
Stearic Acid, TON [2]: 0.10 s⁻¹

— patent publication EP3981864A1, “DETERGENT COMPOSITION” (priority 2020, dated 2022)
